Laboratory results published in publication PMC7539012, “Hyperphosphorylated tau aggregation and cytotoxicity modulators screen identified prescription drugs linked to Alzheimer's disease and cognitive functions” (Scientific Reports, 2020).
Structures can show the parent of a compound that is named as a salt. Where two headings read alike, the source gives them in different places.

System: T1, 1N4R p-tau
T1 construct: made in house; host or cells: E. coli (PIMAX system)
Test: p-tau aggregation modulator screen of 1280-compound library (ThS fluorescence net change over 16 h);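 as to ThS net change: 30 µM compound with 6 µM p-tau over 16 h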
Type: biochemical
Parameters: key to PTAI>2SD: *: PTAI>2SD; key to PTAI>3SD: *: PTAI>3SD
Details: for PTAI>3SD: ThS net change more than 3 SD from mean

[1] = 1280-compound library screen, ThS fluorescence net change over 16 h
[2] = p-tau aggregation modulator screen of the compound library, ThS fluorescence net change
[3] = p-tau aggregation modulator screen of 1280-compound library, ThS fluorescence net change
[4] = library screen, ThS fluorescence net change over 16 h with p-tau
[5] = 1280-compound library screen, […]
[6] = flag: p-tau aggregation inhibitor
[7] = flag: p-tau aggregation inhibitor, ThS net change more than 2 SD from mean

CCCC(C(=O)OCCN(CC)CC)(c1ccccc1)c1ccccc1 [Proadifen hydrochloride]
ThS net change [1]: 390

CCCN(CCC)S(=O)(=O)c1ccc(C(=O)O)cc1 [Probenecid]
ThS net change [2]: 416

CC(C)(Sc1cc(C(C)(C)C)c(O)c(C(C)(C)C)c1)Sc1cc(C(C)(C)C)c(O)c(C(C)(C)C)c1 [Probucol]
ThS net change [2]: 414

CCN(CC)CCNC(=O)c1ccc(N)cc1 [Procainamide hydrochloride]
ThS net change [1]: 379

CCN(CC)CCOC(=O)c1ccc(N)cc1 [Procaine hydrochloride]
ThS net change [3]: 362

CNNCc1ccc(C(=O)NC(C)C)cc1 [Procarbazine hydrochloride]
ThS net change: 457

CN1CCN(CCCN2c3ccccc3Sc3ccc(Cl)cc32)CC1 [Prochlorperazine dimaleate]
ThS net change [3]: 357

OC(CCN1CCCC1)(c1ccccc1)C1CCCCC1 (stereo not shown) [Procyclidine hydrochloride]
ThS net change [3]: 347

CC(=O)[C@H]1CC[C@H]2[C@@H]3CCC4=CC(=O)CC[C@]4(C)[C@H]3CC[C@]12C [Progesterone]
ThS net change [3]: 336

CCCN(CCC)C(=O)C(CCC(=O)O)NC(=O)c1ccccc1 (stereo not shown) [Proglumide]
ThS net change [3]: 331

[H]/N=C(\N/C(=N/[H])Nc1ccc(Cl)cc1)NC(C)C [Proguanil hydrochloride]
ThS net change [1]: 389

CN(C)CCCN1c2ccccc2Sc2ccccc21 [Promazine hydrochloride]
ThS net change [4]: 306

CC(CN1c2ccccc2Sc2ccccc21)N(C)C (stereo not shown) [Promethazine hydrochloride]
ThS net change [3]: 330

CC(C)NCC(O)c1ccc2ccccc2c1.Cl (stereo not shown) [Pronethalol hydrochloride]
ThS net change [1]: 411

CCCNCC(O)COc1ccccc1C(=O)CCc1ccccc1 (stereo not shown) [Propafenone hydrochloride]
ThS net change [4]: 317

CC(C)[N+](C)(CCOC(=O)C1c2ccccc2Oc2ccccc21)C(C)C [Propantheline bromide]
ThS net change [3]: 373

CCCOc1ccc(C(=O)OCCN(CC)CC)cc1N [Proparacaine hydrochloride]
ThS net change [1]: 392

CC[N+](C)(CC)CCC[n+]1c(-c2ccccc2)c2cc(N)ccc2c2ccc(N)cc21.[I-].[I-] [Propidium iodide]
ThS net change: 269

CC(C)c1cccc(C(C)C)c1O [Propofol]
ThS net change: 400

CCCOc1cc(N)ccc1C(=O)OCCN(CC)CC [Propoxycaine hydrochloride]
ThS net change [1]: 403

CCCc1cc(=O)[nH]c(=S)[nH]1 [Propylthiouracil]
ThS net change [2]: 422

C[C@@H]1O[C@@H](O[C@@H]2C=C3CC[C@@H]4[C@H](CC[C@]5(C)[C@@H](c6ccc(=O)oc6)CC[C@]45O)[C@@]3(C)CC2)[C@H](O)[C@H](O)[C@H]1O [Proscillaridin A]
ThS net change: 498

CCCc1cc(C(N)=S)ccn1 [Prothionamide]
ThS net change [1]: 412

CNCCCC1c2ccccc2C=Cc2ccccc21 [Protriptyline hydrochloride]
ThS net change [1]: 412

CN1CCCN=C1/C=C/c1cccs1.O=C(O)C(O)C(O)C(=O)O [Pyrantel tartrate]
ThS net change [4]: 312

NC(=O)c1cnccn1 [Pyrazinamide]
ThS net change [3]: 370

CN(C)C(=O)Oc1ccc[n+](C)c1.[I-] [Pyridostigmine iodide]
ThS net change [5]: 381

Cc1ncc(CO)c(CO)c1O [Pyridoxine hydrochloride]
ThS net change [3]: 354

COc1ccc(CN(CCN(C)C)c2ccccn2)cc1 [Pyrilamine maleate]
ThS net change [4]: 298

CCc1nc(N)nc(N)c1-c1ccc(Cl)cc1 [Pyrimethamine]
ThS net change [3]: 354

CCC1(CC)C(=O)C=CNC1=O [Pyrithyldione]
ThS net change [5]: 404

Cc1cc(/C=C/c2ccc3cc(N(C)C)ccc3[n+]2C)c(C)n1-c1ccccc1 [Pyrvinium pamoate]
PTAI>3SD [6]: * | ThS net change [4]: -379

OCCOCCN1CCN(C2=Nc3ccccc3Sc3ccccc32)CC1 [Quetiapine hemifumarate]
ThS net change [2]: 424

CCN(CC)CCCC(C)Nc1c2ccc(Cl)cc2nc2ccc(OC)cc12.Cl.Cl.O.O (stereo not shown) [Quinacrine dihydrochloride hydrate]
ThS net change: 203

CCOC(=O)[C@H](CCc1ccccc1)N[C@@H](C)C(=O)N1Cc2ccccc2C[C@H]1C(=O)O [Quinapril HCl]
ThS net change [2]: 417

CCC1NC(=O)c2cc(S(N)(=O)=O)c(Cl)cc2N1 (stereo not shown) [Quinethazone]
ThS net change [2]: 427

C=C[C@H]1CN2CC[C@H]1C[C@@H]2[C@@H](O)c1ccnc2ccc(OC)cc12.Cl.O [Quinidine hydrochloride monohydrate]
ThS net change: 282

O=C(O)/C=C\C(=O)O.O=C(O)/C=C\C(=O)O.c1ccc2nc(N3CCNCC3)ccc2c1 [Quipazine dimaleate salt]
ThS net change [3]: 377

COCCCOc1ccnc(C[S+]([O-])c2nc3ccccc3[nH]2)c1C (stereo not shown) [Rabeprazole Sodium salt]
ThS net change [2]: 420

CC(=O)SCC(Cc1ccccc1)C(=O)NCC(=O)OCc1ccccc1 (stereo not shown) [Racecadotril]
ThS net change [2]: 462

CNCC(O)c1ccc(O)c(O)c1 (stereo not shown) [Racepinephrine HCl]
ThS net change [2]: 453

CCN1CCC[C@H]1CNC(=O)c1c(O)c(Cl)cc(Cl)c1OC [Raclopride]
ThS net change [1]: 382

O=C(c1ccc(OCCN2CCCCC2)cc1)c1c(-c2ccc(O)cc2)sc2cc(O)ccc12 [Raloxifene hydrochloride]
PTAI>2SD: * | ThS net change: 133

Cc1nc2ccc(CN(C)c3ccc(C(=O)N[C@@H](CCC(=O)O)C(=O)O)s3)cc2c(=O)[nH]1 [Raltitrexed]
ThS net change [2]: 443

CCOC(=O)[C@H](CCc1ccccc1)N[C@@H](C)C(=O)N1[C@H](C(=O)O)C[C@@H]2CCC[C@@H]21 [Ramipril]
ThS net change [2]: 436

CNC(=C[N+](=O)[O-])NCCSCc1ccc(CN(C)C)o1 [Ranitidine hydrochloride]
ThS net change [1]: 405

COc1ccccc1OCC(O)CN1CCN(CC(=O)Nc2c(C)cccc2C)CC1 (stereo not shown) [Ranolazine]
ThS net change [2]: 414

C#CCN[C@@H]1CCc2ccccc21 [Rasagiline]
ThS net change [2]: 447

O=C(NC(Cc1cc(=O)[nH]c2ccccc12)C(=O)O)c1ccc(Cl)cc1 (stereo not shown) [Rebamipide]
ThS net change [1]: 378

CCOc1ccccc1O[C@@H](c1ccccc1)[C@H]1CNCCO1.CS(=O)(=O)O [Reboxetine mesylate]
ThS net change [5]: 386

CCN1CCC[C@H]1CNC(=O)c1c(OC)ccc(Br)c1OC.Cl [Remoxipride Hydrochloride]
ThS net change [2]: 460

CCOc1cc(CC(=O)N[C@@H](CC(C)C)c2ccccc2N2CCCCC2)ccc1C(=O)O [Repaglinide]
ThS net change [2]: 481

COC(=O)[C@H]1[C@H]2C[C@@H]3c4[nH]c5cc(OC)ccc5c4CCN3C[C@H]2C[C@@H](OC(=O)c2cc(OC)c(OC)c(OC)c2)[C@@H]1OC [Reserpine]
ThS net change [3]: 355

CC1=C(/C=C/C(C)=C/C=C/C(C)=C/C(=O)O)C(C)(C)CCC1 [Retinoic acid]
ThS net change [3]: 374

NC(=O)c1ncn([C@@H]2O[C@H](CO)[C@@H](O)[C@H]2O)n1 [Ribavirin]
ThS net change [2]: 458

NC[C@H]1O[C@H](OC2[C@@H](N)C[C@@H](N)[C@H](O)[C@H]2O[C@@H]2O[C@H](CO)[C@@H](O)[C@H]2O)[C@H](N)[C@@H](O)[C@@H]1O.O=S(=O)(O)O (stereo partly shown) [Ribostamycin sulfate salt]
ThS net change [1]: 379

CO[C@H]1/C=C/O[C@@]2(C)Oc3c(C)c(O)c4c(c3C2=O)C2=NC3(CCN(CC(C)C)CC3)NC2=C(NC(=O)/C(C)=C\C=C\[C@H](C)[C@H](O)[C@@H](C)[C@@H](O)[C@@H](C)[C@H](OC(C)=O)[C@@H]1C)C4=O [Rifabutin]
ThS net change [4]: 267

CO[C@H]1/C=C/O[C@@]2(C)Oc3c(C)c(O)c4c(O)c(c(/C=N/N5CCN(C)CC5)c(O)c4c3C2=O)NC(=O)/C(C)=C\C=C\[C@H](C)[C@H](O)[C@@H](C)[C@@H](O)[C@@H](C)[C@H](OC(C)=O)[C@@H]1C [Rifampicin]
PTAI>2SD [7]: * | ThS net change [4]: 158

CO[C@H]1/C=C/O[C@@]2(C)Oc3c(C)c(O)c4c(O)c(c(/C=N/N5CCN(C6CCCC6)CC5)c(O)c4c3C2=O)NC(=O)/C(C)=C\C=C\[C@H](C)[C@H](O)[C@@H](C)[C@@H](O)[C@@H](C)[C@H](OC(C)=O)[C@@H]1C [Rifapentine]
PTAI>3SD [6]: * | ThS net change [4]: 86

CO[C@H]1/C=C/O[C@@]2(C)Oc3c(C)c(O)c4c(O)c(c5c(nc6cc(C)ccn65)c4c3C2=O)NC(=O)/C(C)=C\C=C\[C@H](C)[C@H](O)[C@@H](C)[C@@H](O)[C@@H](C)[C@H](OC(C)=O)[C@@H]1C [Rifaximin]
PTAI>2SD [7]: * | ThS net change [4]: 112

Cl.Nc1nc2ccc(OC(F)(F)F)cc2s1 [Riluzole hydrochloride]
ThS net change [3]: 353

CC(N)C12CC3CC(CC(C3)C1)C2 (stereo not shown) [Rimantadine Hydrochloride]
ThS net change [3]: 365

CCC(=O)[C@@]1(C)[C@H](C)C[C@H]2[C@@H]3CCC4=CC(=O)C=C[C@]4(C)[C@H]3[C@@H](O)C[C@@]21C [Rimexolone]
ThS net change [2]: 434

O.O=P(O)(O)C(O)(Cc1cccnc1)P(=O)(O)O [Risedronic acid monohydrate]
ThS net change: 455

Cc1nc2n(c(=O)c1CCN1CCC(c3noc4cc(F)ccc34)CC1)CCCC2 [Risperidone]
ThS net change: 447

CC(NCCc1ccc(O)cc1)C(O)c1ccc(O)cc1 (stereo not shown) [Ritodrine hydrochloride]
ThS net change [3]: 363

CC(C)c1nc(CN(C)C(=O)N[C@H](C(=O)N[C@@H](Cc2ccccc2)C[C@H](O)[C@H](Cc2ccccc2)NC(=O)OCc2cncs2)C(C)C)cs1 [Ritonavir]
ThS net change [2]: 538

CCN(C)C(=O)Oc1cccc([C@H](C)N(C)C)c1 [Rivastigmine]
ThS net change: 462

CN(C)CCc1c[nH]c2ccc(Cn3cncn3)cc12 [Rizatriptan benzoate]
ThS net change: 473

CS(=O)(=O)c1ccc(C2=C(c3ccccc3)C(=O)OC2)cc1 [Rofecoxib]
ThS net change [1]: 396

COc1ccc(C2CNC(=O)C2)cc1OC1CCCC1 (stereo not shown) [Rolipram]
ThS net change [1]: 406
